IC50 data for 31 compounds are collected here from US20220274961A1, “SUBSTITUTED FUSED BI- OR TRI- HETEROCYCLIC COMPOUNDS AS EHMT2 INHIBITORS” (priority 2016, published 2022).

Where two headings read alike, the source gives them in different places.

The target of one assay is T1, human EHMT2 913-1193 (Homo sapiens, UniProt Q96KQ7).
T1 construct: recombinant purified human EHMT2 913-1193, Viva; purchased Viva
T1 sequence (Q96KQ7 913-1193): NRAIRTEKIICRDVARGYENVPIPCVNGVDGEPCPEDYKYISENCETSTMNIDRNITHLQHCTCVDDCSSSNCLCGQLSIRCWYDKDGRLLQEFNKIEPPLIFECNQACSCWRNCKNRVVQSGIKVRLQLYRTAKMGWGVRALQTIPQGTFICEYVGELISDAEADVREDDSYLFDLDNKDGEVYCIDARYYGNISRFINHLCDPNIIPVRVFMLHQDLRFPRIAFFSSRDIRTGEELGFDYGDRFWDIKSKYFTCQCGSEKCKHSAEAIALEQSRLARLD
Put plainly: biochemical. The source says:
Biotinylated histone peptides were synthesized by Biopeptide and HPLC-purified to >95% purity. Streptavidin Flashplates and seals were purchased from PerkinElmer and 384 Well V-bottom Polypropylene Plates were from Greiner. ^3H-labeled S-adenosylmethionine (^3H-SAM) was obtained from American Radiolabeled Chemicals with a specific activity of 80 Ci/mmol. Unlabeled SAM and S-adenosylhomocysteine (SAH) were obtained from American Radiolabeled Chemicals and Sigma-Aldrich respectively. […] 384-well Flashplates and 96-well filter binding plates were read on a TopCount microplate reader (PerkinElmer). Compound serial dilutions were performed on a Freedom EVO (Tecan) and spotted into assay plates using a Thermo Scientific Matrix PlateMate (Thermo Scientific). Reagent cocktails were added by Multidrop Combi (Thermo Scientific).
General Procedure for EHMT2 Enzyme Assay on Histone Peptide Substrate. 10-point curves of test compounds were made on a Freedom EVO (Tecan) using serial 3-fold dilutions in DMSO, beginning at 2.5 mM (final top concentration of compound was 50 μM and the DMSO was 2%). A 1 μL aliquot of the inhibitor dilution series was spotted in a polypropylene 384-well V-bottom plate (Greiner) using a Thermo Scientific Matrix PlateMate (Thermo Scientific). […] Reactions were incubated for 60 minutes at room temperature and quenched with 10 μL per well of 400 μM unlabeled SAM, then transferred to a 384-well streptavidin Flashplate (PerkinElmer) and washed in a Biotek ELx-405 well washer with 0.1% Tween after 60 minutes. 384-well Flashplates were read on a TopCount microplate reader (PerkinElmer).

The next assay addresses T2, EHMT1 (Homo sapiens, UniProt Q9H9B1).
T2 sequence (Q9H9B1 1-1298): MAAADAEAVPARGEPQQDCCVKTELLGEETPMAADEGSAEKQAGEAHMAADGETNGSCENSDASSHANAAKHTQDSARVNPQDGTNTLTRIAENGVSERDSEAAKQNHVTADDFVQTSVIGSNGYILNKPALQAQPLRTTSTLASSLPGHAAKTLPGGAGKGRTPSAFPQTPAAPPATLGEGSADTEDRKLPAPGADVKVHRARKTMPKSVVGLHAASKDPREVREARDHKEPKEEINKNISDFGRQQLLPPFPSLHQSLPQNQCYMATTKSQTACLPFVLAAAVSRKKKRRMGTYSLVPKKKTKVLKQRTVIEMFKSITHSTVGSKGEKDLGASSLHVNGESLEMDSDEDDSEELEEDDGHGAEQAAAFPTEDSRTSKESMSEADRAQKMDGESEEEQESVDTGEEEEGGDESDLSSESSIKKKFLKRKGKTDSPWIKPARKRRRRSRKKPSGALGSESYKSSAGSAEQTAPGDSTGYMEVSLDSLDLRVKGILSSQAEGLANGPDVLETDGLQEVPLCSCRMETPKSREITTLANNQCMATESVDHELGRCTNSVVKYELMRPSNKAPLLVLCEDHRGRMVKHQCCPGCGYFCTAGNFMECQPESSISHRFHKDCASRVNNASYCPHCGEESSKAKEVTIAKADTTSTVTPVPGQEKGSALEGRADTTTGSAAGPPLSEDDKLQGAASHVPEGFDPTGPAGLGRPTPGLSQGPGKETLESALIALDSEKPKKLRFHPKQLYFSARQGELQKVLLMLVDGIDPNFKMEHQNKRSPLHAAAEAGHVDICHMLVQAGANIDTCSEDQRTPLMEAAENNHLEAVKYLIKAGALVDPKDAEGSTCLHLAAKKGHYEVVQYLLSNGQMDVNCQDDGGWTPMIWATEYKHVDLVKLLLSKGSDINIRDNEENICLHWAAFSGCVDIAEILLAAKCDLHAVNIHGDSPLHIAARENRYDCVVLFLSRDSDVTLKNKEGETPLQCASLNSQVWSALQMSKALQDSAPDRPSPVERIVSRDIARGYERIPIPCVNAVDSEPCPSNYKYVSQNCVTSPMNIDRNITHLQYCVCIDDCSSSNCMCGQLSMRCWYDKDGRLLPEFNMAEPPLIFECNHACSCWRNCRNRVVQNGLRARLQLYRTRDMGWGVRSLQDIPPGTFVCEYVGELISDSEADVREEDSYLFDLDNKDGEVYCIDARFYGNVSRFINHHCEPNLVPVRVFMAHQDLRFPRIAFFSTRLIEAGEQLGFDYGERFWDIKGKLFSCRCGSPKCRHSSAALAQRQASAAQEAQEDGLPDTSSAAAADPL
Description: EHMT1 PEP. It is filed as biochemical.

The mark [1] stands for this setting: recombinant human EHMT2 913-1193, histone H3 1-15 peptide, 3H-SAM, balanced conditions, read-out: EHMT2 PEP (IC50 μM).

Usually IC50 stands for the point on the concentration scale where inhibition reaches its midpoint. For the compound `COc1cc2c(cc1OCCCN1CCC1)N=C(N)C21CCC1` [Compound 43], the IC50 at human EHMT2 913-1193 (setting [1]) and at EHMT1 was < 0.1 µM each time.

For the compound `COc1cc2c(cc1OCCCN(C)C)N=C(N)C2(C)C` [Compound 46], the IC50 at human EHMT2 913-1193 (setting [1]) and at EHMT1 was 0.1 to 1 µM throughout.

For `COc1cc2c(cc1OCCCN)N=C(N)C2(C)C` [Compound 47], the IC50 on human EHMT2 913-1193 (setting [1]) and at EHMT1 was 1 to 10 µM each time.

Turning to `CNCCCOc1cc2c(cc1OC)C(C)(C)C(N)=N2` [Compound 48], the IC50 on human EHMT2 913-1193 (setting [1]) and at EHMT1 was 0.1 to 1 µM each time.

Consider `COc1cc2c(cc1OCCCN1CC[C@@H](O)C1)N=C(N)C21CCC1` [Compound 49], for which the IC50 on human EHMT2 913-1193 (setting [1]) and against EHMT1 was < 0.1 µM each time.

As to `COc1cc2c(cc1OCCCN1CC[C@H](O)C1)N=C(N)C21CCC1` [Compound 50], the IC50 at human EHMT2 913-1193 (setting [1]) and against EHMT1 was < 0.1 µM throughout.

With `COc1cc2nc[nH]c2cc1OCCCN1CCCC1` [Compound 51], the IC50 at human EHMT2 913-1193 (setting [1]) and on EHMT1 was 1 to 10 µM throughout.

Consider `COc1cc2c(cc1OCCCN1CCCCC1)N=C(N)C21CCC1` [Compound 52], for which the IC50 at human EHMT2 913-1193 (setting [1]) was < 0.1 µM; against EHMT1 it was 0.1 to 1 µM.

With `COc1cc2c(cc1OCCCN(C)C)N=C(N)C21CCC1` [Compound 53], the IC50 at human EHMT2 913-1193 (setting [1]) and on EHMT1 was < 0.1 µM each time.

On to `COc1cc2c(cc1OCCCN1CCOCC1)N=C(N)C21CCC1` [Compound 54], for which the IC50 at human EHMT2 913-1193 (setting [1]) and against EHMT1 was 0.1 to 1 µM in each case.

Consider `COc1cc2c(cc1OCCCN1CCCC1)N=C(N)C21CCCCC1` [Compound 55], for which the IC50 on human EHMT2 913-1193 (setting [1]) and against EHMT1 was < 0.1 µM in each case.

Take `COc1cc2c(cc1OCCCN1CCCC1)N=C(N)C21CCCC1` [Compound 56]: the IC50 on human EHMT2 913-1193 and on EHMT1 was < 0.1 µM in each case.

On to `CNCCCOc1cc2c(cc1OC)C1(CCC1)C(N)=N2` [Compound 57], for which the IC50 at human EHMT2 913-1193 (setting [1]) and against EHMT1 was 1 to 10 µM in each case.

Turning to `NC1=Nc2cc(OCCCN3CCCC3)c(OCc3ccccc3)cc2C12CCC2` [Compound 58], the IC50 at human EHMT2 913-1193 (setting [1]) and at EHMT1 was 1 to 10 µM in each case.

Consider `CCOc1cc2c(cc1OCCCN1CCCC1)N=C(N)C21CCC1` [Compound 59], for which the IC50 at human EHMT2 913-1193 (setting [1]) and against EHMT1 was < 0.1 µM each time.

Take `NC1=Nc2cc(OCCCN3CCCC3)c(OCC3CCOCC3)cc2C12CCC2` [Compound 60]: the IC50 on human EHMT2 913-1193 (setting [1]) and at EHMT1 was 1 to 10 µM in each case.

Consider `NC1=Nc2cc(OCCCN3CCCC3)c(OCC3CCCCC3)cc2C12CCC2` [Compound 61], for which the IC50 on human EHMT2 913-1193 (setting [1]) and against EHMT1 was > 10 µM in each case.

Take `COc1cc2c(cc1OCC(O)CN1CCCC1)N=C(N)C21CCC1` (centres unmarked) [Compound 62]: the IC50 on human EHMT2 913-1193 (setting [1]) and on EHMT1 was < 0.1 µM each time.

On to `COc1cc2c(cc1OCC(C)CN1CCCC1)N=C(N)C21CCC1` (centres unmarked) [Compound 65], for which the IC50 on human EHMT2 913-1193 (setting [1]) and against EHMT1 was 0.1 to 1 µM throughout.

Consider `COc1cc2c(cc1OCCCN1CCCC1)C1(CCC1)C(N)=N2` [Compound 66], for which the IC50 at human EHMT2 913-1193 (setting [1]) and at EHMT1 was 1 to 10 µM throughout.

For the compound `COc1cc2c(cc1OCCCN1CCCC1)ncn2C(C)C` [Compound 67], the IC50 at human EHMT2 913-1193 (setting [1]) is 1 to 10 µM; against EHMT1, > 10 µM.

For `CC(C)Oc1cc2c(cc1OCCCN1CCCC1)N=C(N)C21CCC1` [Compound 68], the IC50 at human EHMT2 913-1193 (setting [1]) and at EHMT1 was 1 to 10 µM each time.

Take `COc1cc2c(cc1OCCCN)N=C(N)C21CCC1` [Compound 69]: the IC50 on human EHMT2 913-1193 (setting [1]) and against EHMT1 was 1 to 10 µM each time.

On to `CNC1=Nc2cc(C#CCN3CC4CC4C3)c(OC)cc2C12CCC2` (centres unmarked) [Compound 87], for which the IC50 on human EHMT2 913-1193 (setting [1]) and against EHMT1 was < 0.1 µM in each case.

Turning to `CNC1=Nc2cc(C#CC(C)N3CC4CC4C3)c(OC)cc2C12CCC2` (centres unmarked) [Compound 89], the IC50 at human EHMT2 913-1193 (setting [1]) and against EHMT1 was < 0.1 µM throughout.

For `CNC1=Nc2cc(C#C[C@H](C)N3CCCCC3)c(OC)cc2C12CCC2` [Compound 93], the IC50 at human EHMT2 913-1193 (setting [1]) and at EHMT1 was < 0.1 µM each time.

Consider `CNC1=Nc2cc(C#C[C@@H](C)N3CCCCC3)c(OC)cc2C12CCC2` [Compound 94], for which the IC50 at human EHMT2 913-1193 (setting [1]) and at EHMT1 was 0.1 to 1 µM each time.

In the case of `CNC1=Nc2cc(C#CCN3CCC(O)C3)c(OC)cc2C12CCC2` (centres unmarked) [Compound 95], the IC50 at human EHMT2 913-1193 (setting [1]) is 0.1 to 1 µM; at EHMT1, < 0.1 µM.

Consider `NC1=Nc2cc(OCCCN3CCCC3)c(-c3ccccc3)cc2C12CCC2` [Compound 135], for which the results for the IC50 on human EHMT2 913-1193 (setting [1]) and on EHMT1 were > 10 µM and 1 to 10 µM, respectively.

Regarding `NC1=Nc2cc(OCCCN3CCCC3)c(-c3ccncc3)cc2C12CCC2` [Compound 136], the IC50 at human EHMT2 913-1193 (setting [1]) was > 10 µM; at EHMT1 it was 1 to 10 µM.

On to `NC1=Nc2cc(OCCCN3CCCC3)c(-c3cccnc3)cc2C12CCC2` [Compound 137], for which the IC50 at human EHMT2 913-1193 (setting [1]) and against EHMT1 was > 10 µM each time.
